Experiments:
Format in all cases: cell-based, human
[1] = test system: HUES8-derived polyhormonal cells; assay: small-molecule phenotypic screen on polyhormonal cells (high-content imaging of pro/insulin and pro/glucagon); conditions: 96 hours incubation, quintuplicate
Method: (§1) Toward this goal, we initiated a small-molecule phenotypic screen to identify compounds that either promote alpha cell identity or conversely reduce proinsulin expression in vitro. Briefly, HUES8 cells were differentiated using our polyhormonal optimized protocol. Cells were dispersed and arrayed into a 384-well plate and compounds were introduced. HUES8-derived polyhormonal cells were co-incubated with a compound library for 96 hours, after which the cells were fixed and stained for pro/glucagon and pro/insulin. High-content imaging was used to quantify the percentage of cells expressing each hormone individually and the percentage of polyhormonal cells as marked by the co-expression of both hormones (FIGS. 3A-3B). In total 43 compounds were evaluated in quintuplicate. […] To confirm that the effects of this compound were not unique to the assay format, PdbU was evaluated in the final stage of the directed differentiation protocol.
Polyhormonal cells were dispersed using TrypLE Express for 15 minutes and quenched using S3 media. The resulting single cell suspension was arrayed into a 384 well plate which had been coated with Matrigel with 50,000 cells in each well. Compounds were introduced each to 5 separate wells and incubated for 96 hours after which cells were fixed with 4% PFA and stained for pro/insulin and pro/glucagon as described above with the following modifications. Antibody incubations and washes were performed using a BioTek EL405 Plate washer and dispenser. Cells were imaged with the cellomics array scan high content imaging system. Nine fields of view were captured for each well and analyzed for cell number and fluorescent content. The percentage of cells expressing pro/insulin and pro/glucagon was calculated for each well.

polyhormonal cells = assay: PKC activator treatment in final stage (stage 6) of directed differentiation, flow cytometry
Method: as §1
To test the specificity of PKC activation on the results shown above, we compiled a small library of known PKC activators and evaluated their ability to similarly decrease insulin expression in polyhormonal cells. […] To that end, we treated polyhormonal cells for 28 days with either vehicle or each PKC activator and assessed the percentage of monohormonal expressing alpha cells at the end of the 28-day treatment. […]

[2] = test system: HUES8 cells differentiated to SC-beta cells; assay: PdbU treatment of stage 6 SC-beta cell differentiation, flow cytometry
From the text: FIG. 7 provides flow cytometry of HUES8 cells differentiated to SC-beta cells and treated with PdbU for 14 days during stage 6.
Differentiation of hPSCs to beta cells results in a side population of polyhormonal cells. To this end we evaluated the effect of PKC activation on the differentiation of SC-beta cells. […] However, when treated with PdbU, the polyhormonal side population in the differentiation was reduced, and the percentage of monohormonal alpha cells was increased.
Cells were collected for flow cytometry analysis at various time points throughout the differentiation process. Cells were dispersed with TrypLE Express at 37° C. for 15 minutes after which trypsin was quenched with serum containing media (S1, S2, or S3). Cells were fixed in 4% PFA for 20 minutes and subsequently stored in PBS at 4° C. until staining. Staining was performed by first permeabilizing the cells in block solution (PBS+0.1% Triton X-100+5% donkey serum) for 40 minutes. Cells were then incubated with primary antibodies in block solution for 1 hour at RT, washed twice with PBST and incubated with secondary antibody in block solution for 1 hour at RT. Cells were then washed in three times and resuspended in PBST at a concentration of 1×10^6 cells/ml. Stained cells were analyzed using the Accuri C6 or Attune flow cytometers. Antibody concentrations used were as follows. Pro/insulin was assessed using an antibody that recognizes the c-peptide epitope from the Iowa Hybridoma Bank and used at a concentration of 1:300. Pro/glucagon was assessed using an antibody that recognizes the GLP-2 (Santa Cruz) or glucagon (Manufacturer) epitopes and used at a concentration of 1:300. Secondary antibodies used were a donkey-anti-goat-Alexaflour 488 (1:500) and a donkey-anti-rat-Alexaflour 647 (1:500).

SC-alpha cells = assay: glucagon secretion of SC-alpha cells with glucagon secretion modulators
From the text: To evaluate the ability of SC-alpha cells to respond to physiological conditions, we screened a number of glucagon secretion modulators and evaluated the effect on glucagon secretion. In the human islet, alpha cells secrete glucagon in response to low glucose conditions. […] Additionally, alpha cells respond to paracrine inhibitory signaling from delta cells through the hormone somatostatin resulting in suppressed glucagon secretion.
A number of pharmacological compounds have been developed to modulate glucagon secretion. We evaluated the effect of these compounds on SC-alpha cells to determine how well SC-alpha cells recapitulate the functional response of alpha cells (FIG. 4C).
Human islets or differentiated polyhormonal or SC-alpha cells were washed twice in low-glucose (2.8 mM) Krebs Ringer (KRB) buffer (128 mM NaCl, 5 mM KCl, 2.7 mM CaCl2, 1.2 mM MgSO4, 1 mM Na2HPO4, 1.2 mM KH2PO4, 5 mM NaHCO3, 10 mM HEPES, 0.1% BSA in milliQ). Cells were then loaded into 24 well transwell inserts and fasted in low glucose KRB for 1 hour at 37° C. Clusters were washed once in low glucose KRB and then incubated in low glucose KRB for 1 hour at 37° C. […] Cells were then dispersed and counted using a vicell automated cell counter. Collected supernatants were analyzed by ELISA for Insulin and/or glucagon and normalized to cell number.

[3] = stage 6 SC-beta cells treated with PdbU

For CCCC(=O)O[C@@H]1[C@@H](C)[C@@]2(O)[C@@H](C=C(CO)C[C@]3(O)C(=O)C(C)=C[C@@H]23)[C@@H]2C(C)(C)[C@]12OC(=O)CCC [PdbU], the “percentage of cells expressing pro/glucagon” value [1] was “increase”, the “percentage of polyhormonal cells (cells expressing both pro/insulin and pro/glucagon)” value [1] was “significantly reduced” and the “percentage of pro/insulin expressing cells” value [1] was “significantly decrease”. For the same molecule, the “population of polyhormonal cells induced to reduce insulin expression” value (polyhormonal cells; 28 day treatment, stage 6, vs. 23±3% (comparison)) was 46±4%, the “percentage of monohormonal SC-alpha cells after withdrawal of PdbU” value (polyhormonal cells; cultured in the absence of PdbU for 7 days) was “did not significantly reduce” and the “percentage of Nkx6.1/C-peptide co-positive cells (number of beta cells)” value ([2]; PdbU for 14 days during stage 6) was “did not have a significant effect”. The “percentage of monohormonal alpha cells in the SC-beta differentiation” value [2, 3] was “increased” and the “polyhormonal side population in the SC-beta differentiation” value [2, 3] was “reduced”.

For COc1ccccc1OCC(O)CN1CCN(CC(=O)Nc2c(C)cccc2C)CC1 (stereo not drawn) [ranolazine], the “glucagon secretion from SC-alpha cells” value (SC-alpha cells) was “increase glucagon secretion”.

From US20240368557A1, “STEM CELL-DERIVED ALPHA CELLS AND METHODS OF GENERATING SAME” (President and Fellows of Harvard College, priority 2018, published 2024)
